Reference: patent publication US7901901B2, “Assays for measuring phosphate modification enzyme activity” (Roche Palo Alto LLC, priority 2006, dated 2011)

Experiment: Phosphodiesterase assay using fluorescence polarization with various metallic ion salts
Type: binding
Conditions: FIG. 1B, 50 nM TAMRA-cGMP with PDE, 10 mM metal salt in 100 mM NaAc/HAc buffer pH 5.2 with 10 mM ZnSO4
Experimental: After one hour of incubation, the fluorescence polarization was measured using Analyst reader (Molecular Devices).

SMILES | fluorescence signal, indicative of binding to the PDE product
[Cl-].[Cl-].[Cl-].[In+3] [InCl3, indium chloride] | able to show fluorescence signal
[Cl][Ga]([Cl])[Cl] [GaCl3] | able to show fluorescence signal
